Assay results published in the NIST ThermoML archive (doi:10.1016/j.tca.2004.11.001).

Assay: molar heat capacity at constant pressure; xn = mol fraction of the nth substance listed
Details: 101.33 kPa, Liquid, x2 = 0

O [water] + CCCCCCOCCOCCOCCOCCOCCO
Details | molar heat capacity at constant pressure [J/K/mol]
283 K | 75.53
288 K | 75.41
298 K | 75.3
308 K | 75.28
318 K | 75.3
328 K | 75.35
338 K | 75.43
